Test results published in PubChem BioAssay (NCI).
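Grown in 96-well plates, cells were treated for 48 hours with each compound at five concentrations. Insufficient inhibition: endpoint recorded as highest concentration tested. Definition used: TGI = concentration required for complete inhibition of growth.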

What was measured:
Test in all cases: growth of human tumour cells (NCI), 48 h
T-47D breast = tested on: T-47D breast
OVCAR-8 ovarian = tested on: OVCAR-8 ovarian
HCT-15 colon = tested on: HCT-15 colon
MDA-N = tested on: MDA-N
RXF 393 renal = tested on: RXF 393 renal
CCRF-CEM leukemia = tested on: CCRF-CEM leukemia
HCC-2998 colon = tested on: HCC-2998 colon
CAKI-1 renal = tested on: CAKI-1 renal
COLO 205 colon = tested on: COLO 205 colon
OVCAR-5 ovarian = tested on: OVCAR-5 ovarian
EKVX NSCLC = tested on: EKVX NSCLC
UACC-62 melanoma = tested on: UACC-62 melanoma
OVCAR-3 ovarian = tested on: OVCAR-3 ovarian
SK-MEL-2 melanoma = tested on: SK-MEL-2 melanoma
SN12C renal = tested on: SN12C renal
NCI/ADR-RES ovarian = tested on: NCI/ADR-RES ovarian
A549 NSCLC = tested on: A549 NSCLC
KM12 colon = tested on: KM12 colon
SF-268 CNS = tested on: SF-268 CNS
SR leukemia = tested on: SR leukemia

Structure (SMILES) | TGI (T-47D breast) | TGI (OVCAR-8 ovarian) | TGI (HCT-15 colon) | TGI (MDA-N) | TGI (RXF 393 renal) | TGI (CCRF-CEM leukemia) | TGI (HCC-2998 colon) | TGI (CAKI-1 renal) | TGI (COLO 205 colon) | TGI (OVCAR-5 ovarian) | TGI (EKVX NSCLC) | TGI (UACC-62 melanoma) | TGI (OVCAR-3 ovarian) | TGI (SK-MEL-2 melanoma) | TGI (SN12C renal) | TGI (NCI/ADR-RES ovarian) | TGI (A549 NSCLC) | TGI (KM12 colon) | TGI (SF-268 CNS) | TGI (SR leukemia)
Cc1[nH]c(=O)nc2c1C(=O)N(C(C)C)C(NC(C)C)S2 (stereo not given) | > 100 µM | > 100 µM | > 100 µM | > 100 µM | > 100 µM | > 100 µM | > 100 µM | > 100 µM | > 100 µM | > 100 µM | > 100 µM | > 100 µM | > 100 µM | > 100 µM | > 100 µM | > 100 µM | > 100 µM | > 100 µM |  | 
CCOC(=O)C1(C/C=C\CBr)CCCCCCC1=O (stereo not given) | > 100 µM | > 100 µM | > 100 µM | > 100 µM | > 100 µM | > 100 µM |  | > 100 µM | > 100 µM | > 100 µM | > 100 µM | > 100 µM |  | > 100 µM | > 100 µM | > 100 µM | > 100 µM | > 100 µM | > 100 µM | 
O=c1n(CCO)nc2n1CCCN2 | > 100 µM | > 100 µM | > 100 µM | > 100 µM | > 100 µM | > 100 µM | > 100 µM |  | > 100 µM | > 100 µM | > 100 µM | > 100 µM | > 100 µM | > 100 µM | > 100 µM |  | > 100 µM | > 100 µM | > 100 µM | > 100 µM
COc1cc2c(cc1C)NC(=O)/C2=C/c1c(Cl)n(C)c2ccccc12 | 19.3 µM | 35.8 µM | 20.5 µM | 5.53 µM | 19.6 µM | > 100 µM | 20.1 µM | 24.4 µM | 31.2 µM | 36.4 µM | 28.1 µM | 26.8 µM | 15.3 µM | 30.4 µM | 33.3 µM | 24.6 µM | 42 µM | 16.6 µM | 16.2 µM | 
O=S(=O)(CC#CCS(=O)(=O)c1ccccc1)c1ccccc1 |  | 5.16 µM | 4 µM | 4.16 µM | 3.38 µM |  | 35.8 µM | 3.42 µM | 5.19 µM | 19.7 µM | 12.1 µM | 11.5 µM | 2.91 µM | 19.4 µM | 12.4 µM | > 83 µM | 37.5 µM | 28.1 µM | 12.5 µM | > 100 µM
N#Cc1ccc(/C=C2\Cc3ccccc3C2=O)cc1 | > 100 µM | > 100 µM | > 100 µM | > 100 µM | > 100 µM | > 100 µM | > 100 µM | > 100 µM | > 100 µM |  | > 100 µM | > 100 µM | > 100 µM |  | > 100 µM |  | > 100 µM | > 100 µM | > 100 µM | > 100 µM
NC(N)=NS(=O)(=O)c1ccc(NC(=O)c2c3ccccc3nc3ccccc23)cc1 |  | > 100 µM | > 100 µM | > 100 µM |  | > 100 µM | > 100 µM | > 100 µM | > 100 µM | > 100 µM | > 100 µM | > 100 µM | > 100 µM | > 100 µM | > 100 µM | > 100 µM | > 100 µM | > 100 µM | > 100 µM | > 100 µM
COc1cc(NS(C)(=O)=O)ccc1N1Cc2cnc3ccc4[nH]ccc1c4c23 | 83.6 µM | > 100 µM | > 100 µM | > 100 µM |  | > 100 µM |  | > 100 µM | > 100 µM | > 100 µM | > 100 µM | > 100 µM | > 100 µM | 64.6 µM | 66.6 µM | > 100 µM | > 100 µM | > 100 µM | 75.2 µM | 
COc1cccc2c(NNc3ccc(Cl)cc3)c3ccc([N+](=O)[O-])cc3nc12 | 61.8 µM |  | 27.3 µM | > 100 µM | 48 µM | 15.6 µM | 53 µM | 15.2 µM | 85 µM | 91.9 µM | 33.3 µM | 26.3 µM | 36.3 µM | > 100 µM | 75.3 µM |  | 28.4 µM | > 100 µM | 28.1 µM | 4 µM
Cc1c2cccc-2c(N(C)C)cc2c1[nH]c1ccccc12 | 5.09 µM | 10.3 µM | 13.6 µM | 22.4 µM |  | 12.8 µM |  | 32.7 µM | 3.42 µM | 9.35 µM | 5.05 µM |  | > 100 µM |  | 20.2 µM | 13.4 µM | 18.6 µM | 7.98 µM | 16.7 µM | 3.98 µM
CC(C)(C)OC(=O)NCCNC(=O)OCc1ccccc1 |  | > 100 µM | > 100 µM | > 100 µM | > 100 µM |  | > 100 µM | > 100 µM | > 100 µM | > 100 µM | > 100 µM | > 100 µM | > 100 µM | > 100 µM | > 100 µM | > 100 µM | > 100 µM | > 100 µM | > 100 µM | > 100 µM
O=C1c2ccccc2C(=O)c2c1c1cc(O)ccc1n2Cc1ccc(Cl)cc1Cl |  | 19.1 µM | 23.3 µM | 38.7 µM | 9.44 µM | 18.9 µM |  | 14.4 µM | 29.8 µM | 5.66 µM |  | 21.8 µM |  | 33.9 µM | 16.3 µM | 11.7 µM | 13.3 µM | > 100 µM | 29.7 µM | > 100 µM
O=S(=O)(N1CCCCN(S(=O)(=O)C(F)(F)F)CCCN(S(=O)(=O)C(F)(F)F)CCCN(S(=O)(=O)C(F)(F)F)CCCCN(S(=O)(=O)C(F)(F)F)CCCN(S(=O)(=O)C(F)(F)F)CCC1)C(F)(F)F | > 100 µM | > 100 µM | > 100 µM | > 100 µM | 70.2 µM | > 100 µM | > 100 µM | > 100 µM | > 100 µM | > 100 µM | > 100 µM | > 100 µM | > 100 µM | > 100 µM | > 100 µM | > 100 µM | > 100 µM | > 100 µM | > 100 µM | 
CCN1CCc2sc3[nH]c(=S)n(C)c(=O)c3c2C1 | > 100 µM | > 100 µM | > 100 µM | > 100 µM | > 100 µM | > 100 µM | > 100 µM | > 100 µM | > 100 µM | > 100 µM | > 100 µM | > 100 µM | > 100 µM | > 100 µM | > 100 µM | > 100 µM | > 100 µM | > 100 µM | > 100 µM | 
C=CCn1c(=O)c(-c2ccccc2)c(O)c2ccccc21 |  | > 100 µM | > 100 µM | > 100 µM | > 100 µM | > 100 µM | > 100 µM | > 100 µM | > 100 µM | > 100 µM | > 100 µM |  | > 100 µM |  | > 100 µM | > 100 µM | > 100 µM | > 100 µM | > 100 µM | > 100 µM
CC1=CC(=O)C[C@]2(C)[C@@H](O)CC(C(C)CO)C[C@@H]12 (stereo not given in full) | > 100 µM | > 100 µM | > 100 µM | > 100 µM | > 100 µM |  | > 100 µM | > 100 µM | > 100 µM | > 100 µM | > 100 µM | > 100 µM | > 100 µM | > 100 µM | > 100 µM | > 100 µM | > 100 µM | > 100 µM | > 100 µM | 
CC(C)(Oc1ccc(C2C[C@H]2Cl)cc1)C(=O)O (stereo not given in full) | > 100 µM |  | > 100 µM | > 100 µM | > 100 µM |  |  | > 100 µM | > 100 µM | > 100 µM | > 100 µM | > 100 µM | > 100 µM | > 100 µM | > 100 µM |  | > 100 µM | > 100 µM |  | > 100 µM
COCN1C(=O)[C@@H]2C[C@@H](OC/C=C/CBr)CN2C(=O)c2ccccc21 | 59 µM | 34 µM | 56.2 µM | 40.3 µM | 51.3 µM | > 100 µM |  | 38.7 µM | 42.8 µM | 49.7 µM | 50.4 µM | 71.5 µM |  | > 100 µM | 33.3 µM | > 100 µM | 35.5 µM | 63.5 µM | 83.4 µM | 
CC(C)Oc1c(O)c2c3c(oc(=O)n3C=CC2c2ccccc2F)c1OC(C)C (stereo not given) |  | > 100 µM | > 100 µM | > 100 µM | 81.5 µM | 97.6 µM |  | > 100 µM | 36.6 µM | 42.9 µM | > 100 µM | > 100 µM | > 100 µM | 34.5 µM | > 100 µM | > 100 µM | > 100 µM | > 100 µM | > 100 µM | 46.1 µM
O=C(c1ccccc1)c1cc(-c2ccccc2)c(-c2ccccc2)[nH]c(=O)c1=O |  | > 100 µM | > 100 µM | > 100 µM |  | > 100 µM | 60.6 µM | > 100 µM | 61.5 µM | > 100 µM | > 100 µM | 82.2 µM | > 100 µM | 57.5 µM | > 100 µM | > 100 µM | > 100 µM | > 100 µM | > 100 µM | 57.1 µM
COc1c(-c2ccc3c(c2)OCO3)oc2cc3c(c(OC)c2c1=O)OCO3 | 36.7 µM | 42.4 µM | > 100 µM | 44.4 µM | 69.8 µM | > 100 µM | 87.4 µM | 62.4 µM | > 100 µM | > 100 µM | 57.1 µM | 64.1 µM | 74.9 µM | 56.9 µM | 47.1 µM | 85.5 µM | 54 µM | 65.1 µM | 44.2 µM | 
